Measured values: ChEMBL document CHEMBL4680137, “Synthesis and biological evaluation of some novel 1,2,3-triazole hybrids of myrrhanone B isolated from Commiphora mukul gum resin: Identification of potent antiproliferative leads active against prostate cancer cells (PC-3)” (Eur J Med Chem, 2020)
The source made the active and inactive calls. The calls are words filed in the database; no cut-off is given here.

Experiments:
A549 = experiment: Antiproliferative activity against human A549 cells assessed as reduction in cell viability after 48 hrs by MTT assay; type: functional, cell-based; conditions: A549, 48 h
DU-145 = experiment: Antiproliferative activity against human DU-145 cells assessed as reduction in cell viability after 48 hrs by MTT assay; type: functional, cell-based; conditions: DU-145, 48 h
MDA-MB-231 = experiment: Antiproliferative activity against human MDA-MB-231 cells assessed as reduction in cell viability after 48 hrs by MTT assay; type: functional, cell-based; conditions: MDA-MB-231, 48 h
SiHa = experiment: Antiproliferative activity against human SiHa cells assessed as reduction in cell viability after 48 hrs by MTT assay; type: functional, cell-based
U-87 MG = experiment: Antiproliferative activity against human U87 cells assessed as reduction in cell viability after 48 hrs by MTT assay; type: functional, cell-based, U-87MG ATCC
PC-3 [1] = experiment: Antiproliferative activity against human PC3 cells assessed as reduction in cell viability after 48 hrs by MTT assay; type: functional, cell-based; conditions: PC-3, 48 h
HT-29 = experiment: Antiproliferative activity against human HT-29 cells assessed as reduction in cell viability after 48 hrs by MTT assay; type: functional, cell-based; conditions: HT-29, 48 h
L132 = experiment: Cytotoxicity against human L132 cells assessed as reduction in cell viability after 48 hrs by MTT assay; type: cell-based; conditions: L132, 48 h
PC-3 [2] = experiment: Induction of cell cycle arrest in human PC-3 cells assessed as accumulation at Sub-G1 phase at 5 uM after 48 hrs by propidium iodide staining based flow cytometric analysis (reference value: 3.58%); type: functional
PC-3 [3] = experiment: Induction of cell cycle arrest in human PC-3 cells assessed as accumulation at G0/G1 phase at 5 uM after 48 hrs by propidium iodide staining based flow cytometric analysis (reference value: 67.6%); type: functional
PC-3 [4] = experiment: Induction of cell cycle arrest in human PC-3 cells assessed as accumulation at S phase at 5 uM after 48 hrs by propidium iodide staining based flow cytometric analysis (reference value: 7.69%); type: functional
PC-3 [5] = experiment: Induction of cell cycle arrest in human PC-3 cells assessed as accumulation at G2/M phase at 5 uM after 48 hrs by propidium iodide staining based flow cytometric analysis (reference value: 20.7%); type: functional
PC-3 [6] = experiment: Induction of cell cycle arrest in human PC-3 cells assessed as accumulation at Sub-G1 phase at 10 uM after 48 hrs by propidium iodide staining based flow cytometric analysis (reference value: 3.58%); type: functional
PC-3 [7] = experiment: Induction of cell cycle arrest in human PC-3 cells assessed as accumulation at G0/G1 phase at 10 uM after 48 hrs by propidium iodide staining based flow cytometric analysis (reference value: 67.6%); type: functional
PC-3 [8] = experiment: Induction of cell cycle arrest in human PC-3 cells assessed as accumulation at S phase at 10 uM after 48 hrs by propidium iodide staining based flow cytometric analysis (reference value: 7.69%); type: functional
PC-3 [9] = experiment: Induction of cell cycle arrest in human PC-3 cells assessed as accumulation at G2/M phase at 10 uM after 48 hrs by propidium iodide staining based flow cytometric analysis (reference value: 20.7%); type: functional
PC-3 [10] = experiment: Induction of apoptosis in human PC-3 cells assessed as fragmented nuclei at 5 to 10 uM after 48 hrs by Hoechst 33258 staining fluorescence microscopic analysis; type: functional, cell-based; conditions: dose 5-10 µM
PC-3 [11] = experiment: Induction of apoptosis in human PC-3 cells assessed as condensed chromatin at 5 to 10 uM after 48 hrs by Hoechst 33258 staining fluorescence microscopic analysis; type: functional, cell-based; conditions: dose 5-10 µM
PC-3 [12] = experiment: Induction of apoptosis in human PC-3 cells assessed as horse shoe shaped nuclei at 5 to 10 uM after 48 hrs by Hoechst 33258 staining fluorescence microscopic analysis; type: functional, cell-based; conditions: dose 5-10 µM
PC-3 [13] = experiment: Induction of apoptosis in human PC-3 cells assessed as condensed chromatin at 5 to 10 uM after 48 hrs by acridine orange and ethidium bromide staining fluorescence microscopic analysis; type: functional, cell-based; conditions: dose 5-10 µM
PC-3 [14] = experiment: Induction of apoptosis in human PC-3 cells assessed as destructive fragmentation of nuclei at 5 to 10 uM after 48 hrs by acridine orange and ethidium bromide staining fluorescence microscopic analysis; type: functional, cell-based; conditions: dose 5-10 µM
PC-3 [15] = experiment: Induction of ROS generation in human PC-3 cells at 10 uM incubated for 6 hrs by DSCFDA staining based spectroflurometric method; type: functional, cell-based
PC-3 [16] = experiment: Induction of mitochondrial membrane potential loss in human PC-3 cells at 10 uM after 24 hrs by JC-1 dye based flow cytometric analysis relative to control; type: functional
PC-3 [17] = experiment: Induction of apoptosis in human PC-3 cells after 24 hrs by Annexin VFITC/PI staining based flow cytometric analysis; type: functional, cell-based
PC-3 [18] = experiment: Induction of apoptosis in human PC-3 cells assessed as viable cells at 2.5 uM after 24 hrs by Annexin VFITC/PI staining based flow cytometric analysis (reference value: 95.8%); type: functional; conditions: read-out: Activity
PC-3 [19] = experiment: Induction of apoptosis in human PC-3 cells assessed as viable cells at 5 uM after 24 hrs by Annexin VFITC/PI staining based flow cytometric analysis (reference value: 95.8%); type: functional; conditions: read-out: Activity
PC-3 [20] = experiment: Induction of apoptosis in human PC-3 cells assessed as viable cells at 7.5 uM after 24 hrs by Annexin VFITC/PI staining based flow cytometric analysis (reference value: 95.8%); type: functional; conditions: read-out: Activity
PC-3 [21] = experiment: Induction of apoptosis in human PC-3 cells assessed as early apoptotic cells at 2.5 uM after 24 hrs by Annexin VFITC/PI staining based flow cytometric analysis (reference value: 0.1%); type: functional
PC-3 [22] = experiment: Induction of apoptosis in human PC-3 cells assessed as early apoptotic cells at 5 uM after 24 hrs by Annexin VFITC/PI staining based flow cytometric analysis (reference value: 0.1%); type: functional
PC-3 [23] = experiment: Induction of apoptosis in human PC-3 cells assessed as early apoptotic cells at 7.5 uM after 24 hrs by Annexin VFITC/PI staining based flow cytometric analysis (reference value: 0.1%); type: functional
PC-3 [24] = experiment: Induction of apoptosis in human PC-3 cells assessed as late apoptotic cells at 7.5 uM after 24 hrs by Annexin VFITC/PI staining based flow cytometric analysis (reference value: 0.2%); type: functional
PC-3 [25] = experiment: Induction of apoptosis in human PC-3 cells assessed as late apoptotic cells at 5 uM after 24 hrs by Annexin VFITC/PI staining based flow cytometric analysis (reference value: 0.2%); type: functional
PC-3 [26] = experiment: Induction of apoptosis in human PC-3 cells assessed as late apoptotic cells at 2.5 uM after 24 hrs by Annexin VFITC/PI staining based flow cytometric analysis (reference value: 0.2%); type: functional
PC-3 [27] = experiment: Induction of apoptosis in human PC-3 cells assessed as necrotic cells at 2.5 uM after 24 hrs by Annexin VFITC/PI staining based flow cytometric analysis (reference value: 4%); type: functional
PC-3 [28] = experiment: Induction of apoptosis in human PC-3 cells assessed as necrotic cells at 5 uM after 24 hrs by Annexin VFITC/PI staining based flow cytometric analysis (reference value: 4%); type: functional
PC-3 [29] = experiment: Induction of apoptosis in human PC-3 cells assessed as necrotic cells at 7.5 uM after 24 hrs by Annexin VFITC/PI staining based flow cytometric analysis (reference value: 4%); type: functional
[30] = Inhibition of LPS-induced TNF-alpha expression in human U-937 cells preincubated for 1 hr followed by LPS addition and measured after 24 hrs by ELISA; type: functional, cell-based
[31] = Inhibition of LPS-induced IL-1beta expression in human U-937 cells preincubated for 1 hr followed by LPS addition and measured after 24 hrs by ELISA; type: functional, cell-based
[32] = Inhibition of Saccharomyces cerevisiae alpha-glucosidase using p-nitophenyl alpha […]D-glucoside incubated for 45 mins
Saccharomyces cerevisiae [33] = experiment: Potency index, ratio of Myrrhanone-B IC50 to test compound IC50 for inhibition of Saccharomyces cerevisiae alpha-glucosidase
Saccharomyces cerevisiae [34] = experiment: Potency index, ratio of acarbose IC50 to test compound IC50 for inhibition of Saccharomyces cerevisiae alpha-glucosidase

C/C(=C\CC/C(C)=C/CC[C@@H]1[C@@]2(C)CCC(=O)C(C)(C)[C@H]2CC[C@@]1(C)O)CC/C=C(\C)C(=O)OCc1cn(C[C@@H]2O[C@H](n3ccc(=O)[nH]c3=O)C[C@H]2O)nn1
IC50 (A549): 28.1 µM
IC50 (DU-145): 33.1 µM
IC50 (MDA-MB-231): 26.3 µM
IC50 (SiHa): 29.3 µM
IC50 (U-87 MG): 75.8 µM
IC50 (PC-3 [1]): 10.8 µM
IC50 (HT-29): 34.1 µM
IC50 (L132): 148 µM
Activity (PC-3 [2]): 5.96%
Activity (PC-3 [3]): 68.7%
Activity (PC-3 [4]): 8.38%
Activity (PC-3 [5]): 16.6%
Activity (PC-3 [6]): 40.8%
Activity (PC-3 [7]): 41%
Activity (PC-3 [8]): 6.76%
Activity (PC-3 [9]): 11.1%
Activity (PC-3 [10]): Active
Activity (PC-3 [11]): Active
Activity (PC-3 [12]): Active
Activity (PC-3 [13]): Active
Activity (PC-3 [14]): Active
Activity (PC-3 [15]): Active
Activity (PC-3 [16]): 38%
Activity (PC-3 [17]): Dose-dependent effect
viability at 2.5 µM (PC-3 [18]): 26.9%
viability at 5 µM (PC-3 [19]): 27.1%
viability at 7.5 µM (PC-3 [20]): 27.9%
Activity (PC-3 [21]): 64.6%
Activity (PC-3 [22]): 59.4%
Activity (PC-3 [23]): 58.3%
Activity (PC-3 [24]): 12.8%
Activity (PC-3 [25]): 12.5%
Activity (PC-3 [26]): 8.6%
Activity (PC-3 [27]): 0.9%
Activity (PC-3 [28]): 1%
Activity (PC-3 [29]): 1%
IC50 [30]: 8.88 µM
IC50 [31]: 9.25 µM

C/C(=C\CC/C(C)=C/CC[C@@H]1[C@@]2(C)CCC(=O)C(C)(C)[C@H]2CC[C@@]1(C)O)CC/C=C(\C)C(=O)OCc1cn(-c2cccc(O)c2)nn1
IC50 (A549): 42.8 µM
IC50 (DU-145): 28.4 µM
IC50 (MDA-MB-231): 139 µM
IC50 (SiHa): 48 µM
IC50 (U-87 MG): > 150 µM
IC50 (PC-3 [1]): 6.57 µM
IC50 (HT-29): 38.6 µM
IC50 (L132): 146 µM
Activity (PC-3 [2]): 2.09%
Activity (PC-3 [3]): 66.5%
Activity (PC-3 [4]): 8.26%
Activity (PC-3 [5]): 22.7%
Activity (PC-3 [6]): 2.16%
Activity (PC-3 [7]): 66.5%
Activity (PC-3 [8]): 7.54%
Activity (PC-3 [9]): 23.4%
Activity (PC-3 [10]): Active
Activity (PC-3 [11]): Active
Activity (PC-3 [12]): Active
Activity (PC-3 [13]): Active
Activity (PC-3 [14]): Active
Activity (PC-3 [15]): Active
Activity (PC-3 [16]): 22%
Activity (PC-3 [17]): Dose-dependent effect
viability at 2.5 µM (PC-3 [18]): 27.7%
viability at 5 µM (PC-3 [19]): 29.3%
viability at 7.5 µM (PC-3 [20]): 31.7%
Activity (PC-3 [21]): 62.9%
Activity (PC-3 [22]): 58.8%
Activity (PC-3 [23]): 54.8%
Activity (PC-3 [24]): 12.1%
Activity (PC-3 [25]): 10.9%
Activity (PC-3 [26]): 8.7%
Activity (PC-3 [27]): 0.8%
Activity (PC-3 [28]): 1%
Activity (PC-3 [29]): 1.4%
IC50 [32]: 14.2 µM

C/C(=C\CC/C(C)=C/CC[C@@H]1[C@@]2(C)CCC(=O)C(C)(C)[C@H]2CC[C@@]1(C)O)CC/C=C(\C)C(=O)OCc1cn(-c2ccccc2[N+](=O)[O-])nn1
IC50 (A549): > 150 µM
IC50 (DU-145): > 150 µM
IC50 (L132): > 150 µM
IC50 [30]: 9.05 µM
IC50 [31]: 8.97 µM
Ratio IC50 (Saccharomyces cerevisiae [33]): 60.2
Ratio IC50 (Saccharomyces cerevisiae [34]): 767
